These results are taken from PubChem BioAssay AID1996.

In brackets after ≈: the same amount, converted by molar mass.

For this data set the following is noted: buffer; pH 7.4; 200.0 µM.
A word on the kinetic solubility: it is solubility judged after dilution from a stock solution rather than from solid. `OC(CNC1Cc2ccccc2C1)COc1ccc(Cl)cc1` (stereo unspecified) gave a solubility (kinetic) above 47.7 µg/mL.
Consider `CC(C)(C)NC(=S)N1CCn2cccc2C1c1cccnc1` (stereo unspecified), for which the solubility (kinetic) stood at 33.5 µg/mL (≈ 107 µM).
The figure for `Cc1cccc(-n2c(O)c(C=NCCN3CCNCC3)c(=O)[nH]c2=S)c1` is 51.2 µg/mL (≈ 137 µM); for `Cc1cccc(C(=O)OCC(=O)N2CCN(C(=O)c3ccco3)CC2)c1O` it is 38.8 µg/mL (≈ 104 µM); for `CCc1ccc(NC(=O)c2[nH]c(C)c(C(C)=O)c2C)cc1` it is 5.1 µg/mL (≈ 17.9 µM).
The figure for `CN1CCN(c2oc(/C=C/c3ccccc3)nc2C#N)CC1` is 40.3 µg/mL (≈ 137 µM).
`Cc1ccc(/C=C2/C(=O)NC(=O)N(Cc3ccc(F)cc3)C2=O)o1`: the kinetic solubility was 11.4 µg/mL (≈ 34.7 µM).
To `O=C(Nc1ccccc1O)c1ccc2c(c1)C(=O)N(Cc1ccco1)C2=O` belongs 1.3 µg/mL (≈ 3.59 µM); to `OC(CNCc1ccccc1)c1ccccc1` (stereo unspecified), above 34.1 µg/mL.
To `COc1ccc(C(=O)O/N=C(\N)c2ccccc2)cc1` belongs 27.1 µg/mL (≈ 100 µM); to `O=C(c1ccc(Cl)cc1)N1CCN(c2ncccn2)CC1`, above 45.4 µg/mL; to `CCOC(=O)c1c(C)[nH]c(C(=O)OCC(=O)NCc2ccc(C)cc2)c1C`, 2.6 µg/mL (≈ 6.98 µM).
With `COc1ccc(Oc2ncccc2[N+](=O)[O-])cc1`, the solubility (kinetic) is above 36.9 µg/mL.
To `CC1CCCCN1C(C(=O)O)c1ccccc1.Cl` (stereo unspecified) belongs above 40.5 µg/mL.
`Cc1ccc(C(OC(=O)c2ccco2)C(=O)NC2CCCC2)cc1` (stereo unspecified) gave a kinetic solubility of 2 µg/mL (≈ 6.11 µM).
To `Oc1ccc(-c2nc3ccccc3s2)cc1` belongs 6.6 µg/mL (≈ 29 µM); to `O=C(Nc1ccc(Br)cc1)N1CCc2ccccc2C1`, 1.1 µg/mL (≈ 3.32 µM).
In turn, `O=C(NCCN1CCOCC1)c1c(O)nc2ccccn2c1=O` came in with a kinetic solubility above 47.7 µg/mL.
To `CCC(NC(=O)C1CCCC1)c1ccc(C)cc1` (stereo unspecified) belongs 34.8 µg/mL (≈ 142 µM); to `Cc1ccc(C)c(NC(=O)CN(C)C(=O)/C=C/c2ccco2)c1`, above 46.9 µg/mL; to `O=C(Nn1cnc2ccccc2c1=O)c1ccc([N+](=O)[O-])cc1`, above 46.5 µg/mL.
The figure for `N#Cc1ccc(CSc2nc(N)cc(N)n2)cc1` is 37.3 µg/mL (≈ 145 µM); for `Cn1ccnc1SCC(=O)c1c(N)n(C)c(=O)n(C)c1=O` it is 41.5 µg/mL (≈ 134 µM).
To `Cc1ccc(CC(=O)NCCC(=O)O)cc1` belongs above 33.2 µg/mL.
For `CCN(Cc1cc(=O)[nH]c2ccccc12)C(=O)C(C)C`, the kinetic solubility is above 40.9 µg/mL.
The figure for `CCCc1cc(=O)[nH]c(SCC(=O)c2c(N)n(C3CC3)c(=O)[nH]c2=O)n1` is 30.7 µg/mL (≈ 81.3 µM).
The figure for `Cc1cc(C(=O)Nc2ccc3c(c2)CCC3)ccc1[N+](=O)[O-]` is below 0.3 µg/mL; for `CC(=O)c1c(C)n(-c2cccc(Cl)c2)c2ccc(O)cc12` it is below 0.6 µg/mL; for `O=C(CNC(=O)c1ccccc1F)Nc1ccc2c(c1)CCC2` it is 2.9 µg/mL (≈ 9.28 µM).
To `Cc1ccccc1NC(=O)N1CCCN(c2ccc(C#N)cn2)CC1` belongs above 50.3 µg/mL; to `COc1cc2c(cc1OC)CN(C(=O)CCC(=O)c1ccc(F)cc1)CC2`, above 55.7 µg/mL; to `CS(=O)(=O)N1CCC(C(=O)Nc2cccc([N+](=O)[O-])c2)CC1`, 44.3 µg/mL (≈ 135 µM).
Consider `Cl.Clc1cccc(Cl)c1CSc1nnc([C@@H]2CCCN2)o1`, for which the kinetic solubility was above 55 µg/mL.
To `Cc1nnc(SCC(=O)Nc2ccccc2F)n(N)c1=O` belongs above 46.4 µg/mL.
`O=C(NC(=O)N1CCCCC1)c1ccccc1` came in with a solubility (kinetic) of 31.7 µg/mL (≈ 136 µM).
The figure for `CCOc1ccc(-c2nc3scc(-c4cccs4)c3c(=O)[nH]2)cc1` is below 0.4 µg/mL; for `CCc1ccccc1N1CN(Cc2ccco2)CNC1=S` it is above 45.2 µg/mL.
For `N#Cc1cc2c([nH]c1=O)CCCC2`, the kinetic solubility is above 26.1 µg/mL.
On to `Cc1ccc(SCC(=O)N2CCC(C(N)=O)CC2)cc1`, for which the kinetic solubility is above 43.9 µg/mL.
As to `CC1CC(C)CN(C(=O)CCNC(=O)c2ccccc2Cl)C1` (stereo unspecified), the solubility (kinetic) came out at 47.7 µg/mL (≈ 148 µM).
The figure for `CCN(CC(=O)NC(=O)NC1CCCCC1)Cc1ccccc1` is 47 µg/mL (≈ 148 µM).
To `O=C(Nc1ccccc1)Nc1nc(-c2ccc(F)c(F)c2)cs1` belongs below 0.2 µg/mL; to `Cc1ccc2oc(=O)c(/C=C(\O)c3ccccc3)nc2c1`, 36.8 µg/mL (≈ 132 µM); to `CC1CCCN(c2ccc(F)cc2N)C1.Cl` (stereo unspecified), 3.8 µg/mL.
To `CS(=O)(=O)N(CC(=O)Nc1ccc(F)cc1F)C1CCCCC1` belongs above 52 µg/mL.
In turn, `Cc1cc(C)nc(SCC(=O)c2ccc(C)c(C)c2)n1` returned a kinetic solubility of 19.3 µg/mL (≈ 67.4 µM).
